From ChEMBL document CHEMBL1155038, “Discovery of phosphonic diamide prodrugs and their use for the oral delivery of a series of fructose 1,6-bisphosphatase inhibitors” (J Med Chem, 2008)

Experiments:
[1] = test system: Hepatocyte; assay: Drug uptake in cryopreserved human hepatocytes per million cells at 100 uM after 60 mins; format: ADME, cell-based; conditions: 1 h
[2] = test system: Rattus norvegicus; assay: Reduction in blood glucose level in Sprague-Dawley rat assessed as time of maximum glucose lowering at 30 mg/kg, po; format: functional
[3] = test system: Rattus norvegicus; assay: Bioavailability in fasted Sprague-Dawley rat assessed as urinary excretion of phosphoric acid at 10 to 50 mg/kg, po after 24 hrs by HPLC relative to iv dosed phosphoric acid; format: ADME, organism-based, Urine; conditions: in vivo
[4] = Stability in human liver S9 fractions assessed as prodrug conversion per mg of protein; format: ADME, subcellular, S9 fraction
[5] = test system: Rattus norvegicus; assay: Reduction in blood glucose level in fasted Sprague-Dawley rat at 30 mg/kg, po relative to control; format: functional; set-up: scale not given: the % may be the effect or the level left
[6] = test system: Rattus norvegicus; assay: Reduction in blood glucose level in fasted Sprague-Dawley rat at <=10 mg/kg, iv relative to control; format: functional; set-up: scale not given: the % may be the effect or the level left

Row | Compound | F [3] [%] | also measured
1 | CCOC(=O)[C@H](C)NP(=O)(N[C@@H](C)C(=O)OCC)c1ccc(-c2nc(N)sc2CC(C)C)o1 | 22 | Drug uptake [1]: 7 nmol; Time [2]: 2 h; Stability [4]: 0.004 nM/min; Activity [5]: 59%
2 | CCOC(=O)CNP(=O)(NCC(=O)OCC)c1ccc(-c2nc(N)sc2CC(C)C)o1 | 26 | Time [2]: 2 h; Activity [5]: 51%
3 | CC(C)Cc1sc(N)nc1-c1ccc(P(=O)(OCOC(=O)C(C)(C)C)OCOC(=O)C(C)(C)C)o1 | 11 | –
4 | CC(C)Cc1sc(N)nc1-c1ccc(P(=O)(NCC(=O)OCc2ccccc2)NCC(=O)OCc2ccccc2)o1 | 17 | –
5 | CCCSc1sc(N)nc1-c1ccc(P(=O)(NC(C)(C)C(=O)OCC)NC(C)(C)C(=O)OCC)o1 | 31 | Time [2]: 2 h; Activity [5]: 51%
6 | CCCSc1sc(N)nc1-c1ccc(P(=O)(N[C@@H](COC(C)(C)C)C(=O)OC)N[C@@H](COC(C)(C)C)C(=O)OC)o1 | 9 | –
7 | CC(C)Cc1sc(N)nc1-c1ccc(P(=O)(NCC(=O)OC(C)(C)C)NCC(=O)OC(C)(C)C)o1 | 9 | –
8 | CCCSc1sc(N)nc1-c1ccc(P(=O)(N[C@@H](C)C(=O)OCC)N[C@@H](C)C(=O)OCC)o1 | 17 | –
9 | CCOC(=O)c1sc(N)nc1-c1ccc(P(=O)(N[C@H](C(=O)OCC)C(C)C)N[C@H](C(=O)OCC)C(C)C)o1 | 6 | –
10 | CCOC(=O)[C@H](CC(C)C)NP(=O)(N[C@@H](CC(C)C)C(=O)OCC)c1ccc(-c2nc(N)sc2CC(C)C)o1 | 3 | –
11 | CCOC(=O)c1sc(N)nc1-c1ccc(P(=O)(NC2(C(=O)OCC)CCCC2)NC2(C(=O)OCC)CCCC2)o1 | 5 | –
12 | CC(C)COC(=O)[C@H](C)NP(=O)(N[C@@H](C)C(=O)OCC(C)C)c1ccc(-c2nc(N)sc2CC(C)C)o1 | 10 | –
13 | CCOC(=O)[C@H](C)NP(=O)(N[C@@H](C)C(=O)OCC)c1ccc(-c2nc(N)sc2-c2ccccc2)o1 | 31 | –
14 | CCCSc1sc(N)nc1-c1ccc(P(=O)(NC2(C(=O)OCC)CCCC2)NC2(C(=O)OCC)CCCC2)o1 | 49 | –
15 | CC(C)Cc1sc(N)nc1-c1ccc(P(=O)(N[C@@H](C)C(=O)OCC(C)(C)C)N[C@@H](C)C(=O)OCC(C)(C)C)o1 | 18 | –
16 | CCCSc1sc(N)nc1-c1ccc(P(=O)(N[C@@H](C)C(=O)OC(C)C)N[C@@H](C)C(=O)OC(C)C)o1 | 17 | –
17 | CCCOC(=O)[C@H](C)NP(=O)(N[C@@H](C)C(=O)OCCC)c1ccc(-c2nc(N)sc2SCCC)o1 | 19 | –
18 | CC(C)Cc1sc(N)nc1-c1ccc(P(=O)(N[C@@H](C)C(=O)OC(C)C)N[C@@H](C)C(=O)OC(C)C)o1 | 31 | Time [2]: 2 h; Activity [5]: 63%
19 | CCCOC(=O)[C@H](C)NP(=O)(N[C@@H](C)C(=O)OCCC)c1ccc(-c2nc(N)sc2CC(C)C)o1 | 16 | –
20 | CCOC(=O)c1sc(N)nc1-c1ccc(P(=O)(N[C@@H](CC)C(=O)OCC)N[C@@H](CC)C(=O)OCC)o1 | 5 | –
21 | CCC[C@H](NP(=O)(N[C@@H](CCC)C(=O)OCC)c1ccc(-c2nc(N)sc2C(=O)OCC)o1)C(=O)OCC | 4 | –
22 | CC(C)OC(=O)[C@H](C)NP(=O)(N[C@@H](C)C(=O)OC(C)C)c1ccc(-c2nc(N)sc2-c2ccccc2)o1 | 23 | Time [2]: 5 h; Activity [5]: 19%
23 | CCOC(=O)C(C)(C)NP(=O)(NC(C)(C)C(=O)OCC)c1ccc(-c2nc(N)sc2-c2ccccc2)o1 | 30 | Time [2]: 2 h; Activity [5]: 25%
24 | CCOC(=O)[C@H](C)NP(=O)(N[C@@H](C)C(=O)OCC)c1ccc(-c2nc(N)sc2SC)o1 | 23 | Time [2]: 2 h; Activity [5]: 38%
25 | CCOC(=O)c1sc(N)nc1-c1ccc(P(=O)(N[C@@H](C)C(=O)OCC)N[C@@H](C)C(=O)OCC)o1 | 30 | Time [2]: 3 h; Activity [5]: 12%
26 | CCCSc1sc(N)nc1-c1ccc(P(=O)(NC2(C(=O)OCC)CCCCC2)NC2(C(=O)OCC)CCCCC2)o1 | 1 | –
27 | CCCCOC(=O)[C@H](C)NP(=O)(N[C@@H](C)C(=O)OCCCC)c1ccc(-c2nc(N)sc2SCCC)o1 | 2 | –

Row | Compound | F [3] [%] | also measured
28 | CCOC(=O)[C@@H](NP(=O)(N[C@H](C(=O)OCC)C(C)C)c1ccc(-c2nc(N)sc2CC(C)C)o1)C(C)C | 7 | –
29 | CCOC(=O)[C@H](CC)NP(=O)(N[C@@H](CC)C(=O)OCC)c1ccc(-c2nc(N)sc2CC(C)C)o1 | 8 | –
30 | CCOC(=O)C(C)(C)NP(=O)(c1ccc(-c2nc(N)sc2CC(C)C)o1)N1CCOCC1 (configuration not stated) | 32 | –
31 | COC(=O)CNP(=O)(COCCn1cnc2c(N)ncnc21)NCC(=O)OC | 2 | –
32 | CSc1sc(N)nc1-c1ccc(P(=O)(O)O)o1 | – | Activity [6]: >50%
33 | CCOC(=O)C(C)(C)NP(=O)(COCCn1cnc2c(N)ncnc21)NC(C)(C)C(=O)OCC | 4 | –
34 | CC(C)Cc1sc(N)nc1-c1ccc(P(=O)(OCOC(=O)OC(C)C)OCOC(=O)OC(C)C)o1 | 13 | –
35 | CC(C)Cc1sc(N)nc1-c1ccc(P(=O)(N[C@@H](C)C(=O)OCc2ccccc2)N[C@@H](C)C(=O)OCc2ccccc2)o1 | 11 | –
36 | CCOC(=O)c1sc(N)nc1-c1ccc(P(=O)(O)O)o1 | – | Activity [6]: >50%
37 | Nc1nc(-c2ccc(P(=O)(O)O)o2)c(-c2ccccc2)s1 | – | Activity [6]: >50%
38 | CCOC(=O)[C@H](CSCc1ccccc1)NP(=O)(N[C@@H](CSCc1ccccc1)C(=O)OCC)c1ccc(-c2nc(N)sc2CC(C)C)o1 | 5 | –
39 | CCOC(=O)[C@H](Cc1ccccc1)NP(=O)(N[C@@H](Cc1ccccc1)C(=O)OCC)c1ccc(-c2nc(N)sc2CC(C)C)o1 | 3 | –
40 | CCCSc1sc(N)nc1-c1ccc(P(=O)(N[C@@H](C)C(=O)OC2CCCCCC2)N[C@@H](C)C(=O)OC2CCCCCC2)o1 | 12 | –
41 | CC(C)CNP(=O)(NCC(C)C)c1ccc(-c2nc(N)sc2CC(C)C)o1 | 0 | –
42 | CCCSc1sc(N)nc1-c1ccc(P(=O)(O)O)o1 | – | Activity [6]: >50%
43 | CCOC(=O)C1(NP(=O)(NC2(C(=O)OCC)CCCC2)c2ccc(-c3nc(N)sc3CC(C)C)o2)CCCC1 | 27 | Time [2]: 2 h; Activity [5]: 20%
44 | COC(=O)[C@@H](C)NP(=O)(N[C@H](C)C(=O)OC)c1ccc(-c2nc(N)sc2CC(C)C)o1 | 22 | Time [2]: 2 h; Activity [5]: 26%
45 | CCOC(=O)C(C)(C)NP(=O)(NC(C)(C)C(=O)OCC)c1ccc(-c2nc(N)sc2SC)o1 | 45 | Time [2]: 2 h; Activity [5]: 80%
46 | CCCSc1sc(N)nc1-c1ccc(P(=O)(N[C@@H](CCC)C(=O)OCC)N[C@@H](CCC)C(=O)OCC)o1 | 6 | –
47 | CCCSc1sc(N)nc1-c1ccc(P(=O)(N[C@@H](C)C(=O)OC(C)(C)C)N[C@@H](C)C(=O)OC(C)(C)C)o1 | 4 | –
48 | CCOC(=O)C(C)(C)NP(=O)(NC(C)(C)C(=O)OCC)c1ccc(-c2nc(N)sc2CC(C)C)o1 | 47 | Time [2]: 2 h; Activity [5]: 45%
49 | CCCSc1sc(N)nc1-c1ccc(P(=O)(N[C@H](C(=O)OCC)C(C)C)N[C@H](C(=O)OCC)C(C)C)o1 | 6 | –
50 | CCCSc1sc(N)nc1-c1ccc(P(=O)(N[C@@H](CC)C(=O)OCC)N[C@@H](CC)C(=O)OCC)o1 | 6 | –
51 | CCOC(=O)C(C)(C)NP(=O)(c1ccc(-c2nc(N)sc2CC(C)C)o1)N1CCCC1 (configuration not stated) | 37 | –
52 | CCOC(=O)C(C)NP(=O)(NC(C)C(=O)OCC)c1ccc(-c2nc(N)sc2CC(C)C)o1 (mixture of isomers) | 28 | Time [2]: 2 h; Activity [5]: 52%
53 | CC(C)Cc1sc(N)nc1-c1ccc(P(=O)(O)O)o1 [MB-05032] | 2 | Activity [6]: >50%
